Reference: US8952024B2, “Herbicidal pyrimidone derivatives” (E I du Pont de Nemours and Company, priority 2009, dated 2015)

Assays:
Format in all cases: in vivo
Settings in all cases: Postemergence
[1] = system: Italian ryegrass (Lolium multiflorum); experiment: Test B pre-/postemergence plant response
Description: (§1) Seeds of plant species selected from blackgrass (Alopecurus myosuroides), downy bromegrass (Bromus tectorum), green foxtail (Setaria viridis), Italian ryegrass (Lolium multiflorum), wheat (Triticum aestivum), wild oat (Avena fatua), deadnettle (henbit deadnettle, Lamium amplexicaule), galium (catchweed bedstraw, Galium aparine), bermudagrass (Cynodon dactylon), Surinam grass (Brachiaria decumbens), cocklebur (Xanthium strumarium), corn (Zea mays), large crabgrass (Digitaria sanguinalis), woolly cupgrass (Eriochloa villosa), giant foxtail (Setaria faberii), goosegrass (Eleusine indica), johnsongrass (Sorghum halepense), kochia (Kochia scoparia), lambsquarters (Chenopodium album), morningglory (Ipomoea coccinea), nightshade (eastern black nightshade, Solanum ptycanthum), yellow nutsedge (Cyperus esculentus), pigweed (Amaranthus retroflexus), ragweed (common ragweed, Ambrosia elatior), Russian thistle (Salsola kali), soybean (Glycine max), sunflower (common oilseed sunflower, Helianthus annuus) and velvetleaf (Abutilon theophrasti) were planted into a blend of loam soil and sand and treated preemergence with test compounds formulated in a non-phytotoxic solvent mixture which included a surfactant.
(§2) At the same time, plants selected from these crop and weed species and also winter barley (Hordeum vulgare), canarygrass (Phalaris minor), chickweed (Stellaria media) and windgrass (Apera spica-venti) were planted in pots containing Redi-Earth® planting medium (Scotts Company, 14111 Scottslawn Road, Marysville, Ohio 43041) comprising spaghnum peat moss, vermiculite, wetting agent and starter nutrients and treated with postemergence applications of some of the test chemicals formulated in the same manner. Plants ranged in height from 2 to 18 cm (1- to 4-leaf stage) for postemergence treatments.
(§3) Treated plants and controls were maintained in a greenhouse for 13 to 15 days, after which time all treated plants were visually evaluated and compared to controls. Plant response ratings, summarized in Table B, are based on a scale of 0 to 100 where 0 is no effect and 100 is complete control. A dash (-) response means no test result.

[2] = system: Surinam grass (Brachiaria decumbens); experiment: Test B pre-/postemergence plant response
Description: as §1, §2, §3

[3] = system: blackgrass (Alopecurus myosuroides); experiment: Test B pre-/postemergence plant response
Description: as §1, §2, §3

[4] = system: cocklebur (Xanthium strumarium); experiment: Test B pre-/postemergence plant response
Description: as §1, §2, §3

corn (Zea mays) = experiment: Test B pre-/postemergence plant response
Description: as §1, §2, §3

[5] = system: downy bromegrass (Bromus tectorum); experiment: Test B pre-/postemergence plant response
Description: as §1, §2, §3

[6] = system: giant foxtail (Setaria faberii); experiment: Test B pre-/postemergence plant response
Description: as §1, §2, §3

[7] = system: morningglory (Ipomoea coccinea); experiment: Test B pre-/postemergence plant response
Description: as §1, §2, §3

[8] = system: pigweed (Amaranthus retroflexus); experiment: Test B pre-/postemergence plant response
Description: as §1, §2, §3

wild oat (Avena fatua) = experiment: Test B pre-/postemergence plant response
Description: as §1, §2, §3

[9] = system: canarygrass (Phalaris minor); experiment: Test B postemergence plant response
Method in brief: (§4)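 Plants at the 1- to 4-leaf stage (2 to 18 cm tall), grown in pots of peat moss/vermiculite medium with wetting agent and starter nutrients, received postemergence applications of test chemicals. After 13 to 15 days in a greenhouse, injury was rated visually against untreated controls on a 0 (no effect) to 100 (complete control) scale.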

[10] = system: chickweed (Stellaria media); experiment: Test B postemergence plant response
Method in brief: as §4

[11] = system: windgrass (Apera spica-venti); experiment: Test B postemergence plant response
Method in brief: as §4

COc1ccc(-n2c(-c3ccccc3)ncc(C(=O)C3=C(O)CCCC3=O)c2=O)cc1 [Compound 4, 5-[(2-hydroxy-6-oxo-cyclohexen-1-yl)carbonyl]-3-(4-methoxyphenyl)-2-phenyl-4(3H)-pyrimidinone]
pest or weed control at 31 g/ha ([1]; Lolium multiflorum, post-emergence, 31 g ai/ha, scale 0 to 100 (0 no effect, 100 complete control), read-out: Plant response rating, Ryegrass, Italian): 10%
pest or weed control at 62 g/ha ([1]; Lolium multiflorum, post-emergence, 62 g ai/ha, scale 0 (no effect) to 100 (complete control), 13 to 15 days, read-out: Plant response rating, Ryegrass, Italian): 10%
pest or weed control at 125 g/ha ([1]; Lolium multiflorum, post-emergence, 125 g ai/ha, visual rating after 13 to 15 days, scale 0 (no effect) to 100 (complete control)): 15%
Ryegrass, Italian plant response rating ([1]; 250 g ai/ha, scale 0 to 100): 20
Surinam Grass plant response rating ([2]; 250 g ai/ha, scale 0 to 100): 90
pest or weed control at 31 g/ha ([2]; Urochloa decumbens, post-emergence, 31 g ai/ha, scale 0 to 100 (0 no effect, 100 complete control), read-out: Plant response rating, Surinam Grass): 60%
pest or weed control at 62 g/ha ([2]; Urochloa decumbens, post-emergence, 62 g ai/ha, scale 0 (no effect) to 100 (complete control), 13 to 15 days, read-out: Plant response rating, Surinam Grass): 70%
pest or weed control at 125 g/ha ([2]; Urochloa decumbens, post-emergence, 125 g ai/ha, visual rating after 13 to 15 days, scale 0 (no effect) to 100 (complete control)): 75%
pest or weed control at 31 g/ha ([3]; Alopecurus myosuroides, post-emergence, 360 h, 31 g ai/ha, scale 0 to 100 (0 no effect, 100 complete control), read-out: Plant response rating, Blackgrass): 10%
pest or weed control at 62 g/ha ([3]; Alopecurus myosuroides, post-emergence, 360 h, 62 g ai/ha, scale 0 (no effect) to 100 (complete control), 13 to 15 days, read-out: Plant response rating, Blackgrass): 20%
pest or weed control at 125 g/ha ([3]; Alopecurus myosuroides, post-emergence, 360 h, 125 g ai/ha, visual rating after 13 to 15 days, scale 0 (no effect) to 100 (complete control)): 30%
Blackgrass plant response rating ([3]; 250 g ai/ha, scale 0 to 100): 50
Cocklebur plant response rating ([4]; 250 g ai/ha, scale 0 to 100): 100
pest or weed control at 31 g/ha ([4]; Xanthium strumarium, post-emergence, 31 g ai/ha, scale 0 to 100 (0 no effect, 100 complete control), read-out: Plant response rating, Cocklebur): 100%
pest or weed control at 62 g/ha ([4]; Xanthium strumarium, post-emergence, 62 g ai/ha, scale 0 (no effect) to 100 (complete control), 13 to 15 days, read-out: Plant response rating, Cocklebur): 100%
pest or weed control at 125 g/ha ([4]; Xanthium strumarium, post-emergence, 125 g ai/ha, visual rating after 13 to 15 days, scale 0 (no effect) to 100 (complete control)): 100%
Corn plant response rating (corn (Zea mays); 250 g ai/ha, scale 0 to 100): 85
Corn plant response rating (crop injury, 0 = no effect, 100 = complete kill) at 31 g/ha (corn (Zea mays); Zea mays, post-emergence, 31 g ai/ha, scale 0 to 100 (0 no effect, 100 complete control)): 10%
Corn plant response rating (crop injury, 0 = no effect, 100 = complete kill) at 62 g/ha (corn (Zea mays); Zea mays, post-emergence, 62 g ai/ha, scale 0 (no effect) to 100 (complete control), 13 to 15 days): 25%
Corn plant response rating (crop injury, 0 = no effect, 100 = complete kill) at 125 g/ha (corn (Zea mays); Zea mays, post-emergence, 125 g ai/ha, visual rating after 13 to 15 days, scale 0 (no effect) to 100 (complete control)): 50%
pest or weed control at 31 g/ha ([5]; Bromus tectorum, post-emergence, 31 g ai/ha, scale 0 to 100 (0 no effect, 100 complete control), read-out: Plant response rating, Bromegrass, Downy): 10%
pest or weed control at 62 g/ha ([5]; Bromus tectorum, post-emergence, 62 g ai/ha, scale 0 (no effect) to 100 (complete control), 13 to 15 days, read-out: Plant response rating, Bromegrass, Downy): 15%
pest or weed control at 125 g/ha ([5]; Bromus tectorum, post-emergence, 125 g ai/ha, visual rating after 13 to 15 days, scale 0 (no effect) to 100 (complete control)): 50%
Bromegrass, Downy plant response rating ([5]; 250 g ai/ha, scale 0 to 100): 55
Foxtail, Giant plant response rating ([6]; 250 g ai/ha, scale 0 to 100): 100
pest or weed control at 31 g/ha ([6]; Setaria faberi, post-emergence, 31 g ai/ha, scale 0 to 100 (0 no effect, 100 complete control), read-out: Plant response rating, Foxtail, Giant): 80%
pest or weed control at 62 g/ha ([6]; Setaria faberi, post-emergence, 62 g ai/ha, scale 0 (no effect) to 100 (complete control), 13 to 15 days, read-out: Plant response rating, Foxtail, Giant): 98%
pest or weed control at 125 g/ha ([6]; Setaria faberi, post-emergence, 125 g ai/ha, visual rating after 13 to 15 days, scale 0 (no effect) to 100 (complete control)): 98%
pest or weed control at 31 g/ha ([7]; Ipomoea, post-emergence, 31 g ai/ha, scale 0 to 100 (0 no effect, 100 complete control), read-out: Plant response rating, Morningglory): 60%
pest or weed control at 62 g/ha ([7]; Ipomoea, post-emergence, 62 g ai/ha, scale 0 (no effect) to 100 (complete control), 13 to 15 days, read-out: Plant response rating, Morningglory): 85%
pest or weed control at 125 g/ha ([7]; Ipomoea, post-emergence, 125 g ai/ha, visual rating after 13 to 15 days, scale 0 (no effect) to 100 (complete control)): 90%
Morningglory plant response rating ([7]; 250 g ai/ha, scale 0 to 100): 95
pest or weed control at 31 g/ha ([8]; Amaranthus retroflexus, post-emergence, 31 g ai/ha, scale 0 to 100 (0 no effect, 100 complete control), read-out: Plant response rating, Pigweed): 100%
pest or weed control at 62 g/ha ([8]; Amaranthus retroflexus, post-emergence, 62 g ai/ha, scale 0 (no effect) to 100 (complete control), 13 to 15 days, read-out: Plant response rating, Pigweed): 100%
pest or weed control at 125 g/ha ([8]; Amaranthus retroflexus, post-emergence, 125 g ai/ha, visual rating after 13 to 15 days, scale 0 (no effect) to 100 (complete control)): 100%
Pigweed plant response rating ([8]; 250 g ai/ha, scale 0 to 100): 100
pest or weed control at 31 g/ha (wild oat (Avena fatua); Avena fatua, post-emergence, 31 g ai/ha, scale 0 to 100 (0 no effect, 100 complete control), read-out: Plant response rating, Oat, Wild): 30%
pest or weed control at 62 g/ha (wild oat (Avena fatua); Avena fatua, post-emergence, 62 g ai/ha, scale 0 (no effect) to 100 (complete control), 13 to 15 days, read-out: Plant response rating, Oat, Wild): 50%
pest or weed control at 125 g/ha (wild oat (Avena fatua); Avena fatua, post-emergence, 125 g ai/ha, visual rating after 13 to 15 days, scale 0 (no effect) to 100 (complete control)): 50%
Oat, Wild plant response rating (wild oat (Avena fatua); 250 g ai/ha, scale 0 to 100): 50
pest or weed control at 31 g/ha ([9]; Phalaris minor, post-emergence, 360 h, 31 g ai/ha, scale 0 to 100 (0 no effect, 100 complete control), read-out: Plant response rating, Canarygrass): 10%
pest or weed control at 62 g/ha ([9]; Phalaris minor, post-emergence, 360 h, 62 g ai/ha, scale 0 (no effect) to 100 (complete control), 13 to 15 days, read-out: Plant response rating, Canarygrass): 20%
pest or weed control at 125 g/ha ([9]; Phalaris minor, post-emergence, 360 h, 125 g ai/ha, visual rating after 13 to 15 days, scale 0 (no effect) to 100 (complete control)): 75%
Canarygrass plant response rating ([9]; 250 g ai/ha, scale 0 to 100): 80
Chickweed plant response rating ([10]; 250 g ai/ha, scale 0 to 100): 100
pest or weed control at 31 g/ha ([10]; Stellaria media, post-emergence, 360 h, 31 g ai/ha, scale 0 to 100 (0 no effect, 100 complete control), read-out: Plant response rating, Chickweed): 100%
pest or weed control at 62 g/ha ([10]; Stellaria media, post-emergence, 360 h, 62 g ai/ha, scale 0 (no effect) to 100 (complete control), 13 to 15 days, read-out: Plant response rating, Chickweed): 100%
pest or weed control at 125 g/ha ([10]; Stellaria media, post-emergence, 360 h, 125 g ai/ha, visual rating after 13 to 15 days, scale 0 (no effect) to 100 (complete control)): 100%
pest or weed control at 31 g/ha ([11]; Apera spica-venti, post-emergence, 360 h, 31 g ai/ha, scale 0 to 100 (0 no effect, 100 complete control), read-out: Plant response rating, Windgrass): 50%
pest or weed control at 62 g/ha ([11]; Apera spica-venti, post-emergence, 360 h, 62 g ai/ha, scale 0 (no effect) to 100 (complete control), 13 to 15 days, read-out: Plant response rating, Windgrass): 55%
pest or weed control at 125 g/ha ([11]; Apera spica-venti, post-emergence, 360 h, 125 g ai/ha, visual rating after 13 to 15 days, scale 0 (no effect) to 100 (complete control)): 60%
Windgrass plant response rating ([11]; 250 g ai/ha, scale 0 to 100): 75
